Measurements: US12173320B2, “Production of red blood cells and platelets from stem cells” (BOSTON MEDICAL CENTER CORPORATION, priority 2012, dated 2024)

How the values were obtained:
iPSC-derived MEPs = assay: Live versus dead cell FACS (propidium iodide vs. Hoechst) of MEPs; assay type: cell-based, human
Experimental: 6-formylindolo[3,2-b]carbazole (FICZ), an AHR small molecule agonist, and CH223191, an AHR competitive inhibitor were used for these assays. CH223191 was added to mesoderm cultures at Day 6 at 5 μM (lx) and 2.504 (0.5×). 0.2 μM FICZ was added to cultures at Day 7 and media was added daily. DMSO was used as a vehicle control.
Roughly 10^5 cells were collected, spun, and re-suspended in 0.5% BSA in PBS. Samples were incubated for 30 min at ambient temperature with human antibodies including CD41a-FITC (BD 555466), CD235-PE (BD 555570), CD71-FITC (BD 555536), washed and spun at 3300 rpm for 7 min, and re-suspended in 0.5% BSA in PBS with 1 ug/ml Propidium Iodide. Samples were run on a BD FACScalibur using Cellquest Pro software and analyzed via FloJo 8.7. For ploidy analysis, cells were treated with 1.5% NP-40 (Boston Bioproducts P-872) and 62.5 ug/ml Propidium Iodide in PBS immediately before FACScalibur interrogation. For murine bone marrow, samples were first incubated for 5 min at ambient temperature with murine conjugated antibody CD16/32 (BD 553142) before a 30 min incubation with c-Kit-PE (BD 553355), CD41a-FITC (BD 553848), Ter119-PE (BD 553673). For cell viability assays, 2-3×10 ^5 cells were collected, re-suspended in 8.8 ug/ml Hoecsht 33342 in PBS supplemented with 5% FBS. Samples were then incubated in the dark at 37° C. for 15 min, washed, and re-suspended in 1 ug/ml Propidium Iodide in 5% FBS. Samples were run on an LSR-II machine with FACSDiva software and analyzed via FloJo 8.7.
In order to determine whether FICZ-mediated transactivation of the AhR receptor was responsible for the exponential expansion of iPSC-derived MEPs, the previously described Hoecsht/Propidium Iodide apoptosis assay was performed using the known AhR inhibitor CH223191. As previously shown in FIG. 3, fewer cells stained with propidium iodide after FICZ treatment (e.g., 15.5% vs. 8.09%) (FIG. 5E). […] The efficacy of the CH223191 was confirmed by its ability to block CY1^31B1 induction as assayed by qRT-PCR (FIG. 5F).

[1] = system: AhR (CYP1B1 target gene expression); assay: In vivo CYP1B1 target gene expression in liver and spleen (quantitative RT-PCR); parameters: species or system mouse; conditions: after 3 weeks of FICZ
Experimental: RNA was extracted using the RNeasy kit (Qiagen) according to the manufacturer's instructions and DNase treated using the DNA-free kit (Ambion AM1906). Reverse transcription into cDNA was performed using the High Capacity cDNA Reverse Transcription Kit (Applied Biosystems 4368814). Quantitative (real time) PCR amplification of cDNA was performed using Taqman probes for AHR (Hs00169233 ml), CYP1B1 (Hs002382916 sl), HBA (Hs00361191 gl), HBB (Hs00758889 sl), HBG (Hs01629437 sl), vWF (Hs00169795 ml), PF4 (Hs00427220 gl), NF-E2 (Hs00232351 ml) and CD62P (Hs00927900 ml) and run on the Applied Biosystems StepOne machine. Relative gene expression was normalized to B-actin (Hs99999903 ml).
C57B16 mice were injected daily intraperitoneally with FICZ suspended in vegetable oil using a weekly dose escalation scheme (Week 1: 1 mg/kg; Week 2: 2 mg/kg; Week 3: 4 mg/kg). Blood cell counts were assayed by Hemavet quantification of peripheral blood bleeds, at all 3 time points (Day 7, 14, and 21). Following the 3 week time point, mice were sacrificed and livers and spleens harvested for quantitative RT-PCR analyses.
To determine if FICZ treatment or whole animals would affect RBC or platelet production, C57B16 mice were injected daily intraperitoneally with FICZ suspended in vegetable oil using a weekly dose escalation scheme (Week 1: 1 mg/kg; Week 2: 2 mg/kg; Week 3: 4 mg/kg). […]

CYP1B1 target gene expression in liver [1]: robust upregulation
CYP1B1 target gene expression in spleen [1]: robust upregulation
SMILES: O=Cc1c2c(cc3c1=Nc1ccccc1-3)=Nc1ccccc1-2 [FICZ, 6-formylindolo[3,2-b]carbazole]
cells stained with propidium iodide (iPSC-derived MEPs; D13 MEPs, FICZ added at D7, untreated 15.5%): 8.09%
population of live cells as delineated by FSC and SSC (iPSC-derived MEPs; day 15 MEPs + FICZ): 32.6%
live cells PI- Hoechst+ (iPSC-derived MEPs; day 15 MEPs + FICZ, gated from FSC vs. SSC population): 97.7%
cell death by propidium iodide staining and Hoechst dye exclusion (iPSC-derived MEPs; day 30 MEPs, versus untreated control): significantly less cell death
